According to article PMC8791944, “GLUT3 inhibitor discovery through in silico ligand screening and in vivo validation in eukaryotic expression systems” (Scientific Reports, 2022):

target: T1, GLUT5S72Y (Homo sapiens, UniProt P22732, S72Y); assay: Fructose transport assay, GLUT5S72Y expressed in hxt^0 yeast cells EBY.VW4000; assay type: cell-based; settings: GLUT5S72Y in hxt^0 yeast cells, 10 mM fructose; read-out: IC50 for GLUT5 transport inhibition
T1 construct: expressed in transfected cells; host or cells: Saccharomyces cerevisiae hxt0 strain EBY.VW4000
T1 sequence (P22732 1-501 S72Y): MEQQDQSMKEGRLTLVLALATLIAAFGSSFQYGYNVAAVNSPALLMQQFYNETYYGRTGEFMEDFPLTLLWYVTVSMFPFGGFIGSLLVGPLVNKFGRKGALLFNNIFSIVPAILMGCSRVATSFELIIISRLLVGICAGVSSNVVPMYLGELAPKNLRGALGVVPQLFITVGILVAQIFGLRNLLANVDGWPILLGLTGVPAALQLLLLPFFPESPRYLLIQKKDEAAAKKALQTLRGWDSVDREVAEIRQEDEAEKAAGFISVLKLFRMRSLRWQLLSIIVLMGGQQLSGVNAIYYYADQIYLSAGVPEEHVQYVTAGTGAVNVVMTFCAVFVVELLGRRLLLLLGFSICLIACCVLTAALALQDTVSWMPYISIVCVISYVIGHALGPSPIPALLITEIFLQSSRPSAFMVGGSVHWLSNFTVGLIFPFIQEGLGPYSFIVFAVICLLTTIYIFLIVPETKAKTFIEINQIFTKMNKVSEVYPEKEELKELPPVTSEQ
Text: The most studied GLUTs are Class 1 GLUTs (GLUT1-4) and a Class 2 GLUT, GLUT5 (a fructose-only transporter). GLUT3 sequence homology and identity is 79% and 64%, 71% and 52%, 74% and 57%, and 60% and 38% with GLUT1, GLUT2, GLUT4, and GLUT5, respectively. The hxt^0 yeast cell systems expressing functional GLUT1-4[65],[69] and GLUT5[66] allow us to determine the in vivo transport activity (substrate uptake by a GLUT into whole cells) for individual GLUTs and establish GLUT3 inhibitor selectivity for these transporters. […] Given the higher sequence similarity within Class 1 GLUTs, we expected GLUT3 inhibitors to affect Class 1 GLUTs much more than GLUT5. Indeed, G3iA-G3iF reduced the transport activities of some of the other Class 1 GLUTs (Fig. 3A–C, Table 2, Supplementary Fig. S6). […] For example, G3iB was an equipotent inhibitor of GLUT4, while G3iD and G3iE inhibited GLUT1 in a similar manner to GLUT3. […] Moreover, G3iD affected all Class 1 GLUTs, having the best relative selectivity for GLUT4.
Figure 3 Effect of GLUT3 inhibitors on GLUT1, GLUT2, GLUT4, and GLUT5. The transport activity was assayed as the substrate uptake in hexose transporter-deficient yeast cells expressing functional GLUT1[65], GLUT2[69], GLUT4[65], or GLUT5[66]. […] Transport assay was initiated by the addition of C^14-labeled substrate and stopped after 10 min (see “Materials and methods” for details). (A–D) Effect of G3iA-G3iF, at 50 µM concentration, on the relative transport activities of GLUT1 (A), GLUT2 (B), GLUT4 (C), and GLUT5 (D). Standard deviations for experimental points come from at least three independent measurements.
The plasmids containing functional constructs of GLUT1-5 were transformed in the corresponding hxt^0 strains[65],[66],[73] (EBY.VW4000 for GLUT5S72Y, EBY.S7 for GLUT1, GLUT2∆loopS_Q455R, GLUT3 and GLUT3S66Y, and SDY.022 for GLUT4) and grown on 2% (w/v) agar plates of the respective media supplemented with 1% (w/v) maltose. An initial culture of ~ 10 ml was started with a few colonies and grown for 2–3 days if the media was SC-uracil with 1% (w/v) maltose (GLUT1, GLUT3, GLUT4) or 1–2 days if the media was YEP with 1% (w/v) maltose and 100 µg/ml geneticin G418 (GLUT2∆loopS_Q455R and GLUT5S72Y). […] Then, cells were transferred in the same media so that OD600nm ~ 0.5 and grown further for 1–2 days.
For transport activity assay, cells in the hexose media were centrifuged (1000×g, 5 min, room temperature), washed once with PBS buffer (10 mM Na2HPO4, 1.8 mM KH2PO4, 2.7 mM KCl, 137 mM NaCl, pH 7.4), and resuspended in PBS buffer at an OD600nm ~ 10; each assay contained 100 µl of this cell solution. […] Substrate uptake into cells was linear for more than 20 min. […] The filtration membranes were transferred into scintillation vials with 10 ml of Scintillation Solution (BioSafeII; Research Products International, Mount Prospect, IL, USA), and vortexed briefly. The radioactivity was determined with a scintillation counter (Tri-carb 2900TR, Perkin Elmer, USA). As all compounds were solubilized in dimethyl sulfoxide (DMSO), controls for determining the relative transport activity included 1% (v/v) DMSO to represent DMSO used as vehicle control (i.e., 100% activity), and known inhibitors at saturating concentrations, 200 µM phloretin for GLUT1-4[69],[82], and 100 µM N-[4-(methylsulfonyl)-2-nitrophenyl]-1,3-benzodioxol-5-amine (MSNBA) for GLUT5 (i.e., complete inhibition). […] Data were analyzed with GraphPad Prism (San Diego, CA, USA).

| SMILES | IC50 [µM] |
| --- | --- |
| CC(=O)Nc1ccc(S(=O)(=O)Nc2ccc(Nc3cc(N(C)C)nc(C)n3)cc2)cc1 [G3iA, N-(4-{[(4-{[6-(dimethylamino)-2-methylpyrimidin-4-yl]amino}phenyl)amino]sulfonyl}phenyl)acetamide] | > 50 |
| COc1ccccc1-n1c(/C=C/c2ccc(O)cc2)nc2ccc(Br)cc2c1=O [G3iB, 6-bromo-2-[(E)-2-(4-hydroxyphenyl)ethenyl]-3-(2-methoxyphenyl)quinazolin-4(3H)-one] | > 50 |
| Cc1cccnc1OC1CCN(c2cc(N3CCCC3CO)ncn2)CC1 (stereo not drawn) [G3iC] | > 50 |
| Cc1cc(NC(=O)CCC2Cc3ccccc3NC2=O)nc(-c2ccccc2)n1 (stereo not drawn) [G3iD] | > 50 |
| O=C(Nc1cccc(Cl)c1)c1cccc(NC(=O)c2cccc([N+](=O)[O-])c2)c1 [G3iE, N-{3-[(3-chloroanilino)carbonyl]phenyl}-3-nitrobenzamide] | > 50 |
| Cc1ccccc1CN(Cc1nnc(C(C)(C)C)o1)c1ccc2nc(O)[nH]c2c1 [G3iF] | > 50 |
